This note sets out measurements from article PMC8850458, “The AUTOTAC chemical biology platform for targeted protein degradation via the autophagy-lysosome system” (Nature Communications, 2022).

One series deals with Ub^+ and p62^+ puncta. Nature of the series: ICC of Ub (FK2) and p62 puncta in HeLa cells. The series is classed as cell-based. The following applies: Fig. 4g; for FK2 (Ub) / p62 colocalization, cells counted per 50 cells (individual replicates): listed as PBA. The procedure:
(§1) Fig. 4 Targeted autophagic delivery and degradation of misfolded protein cargoes using AUTOTACs with aggregate-binding warhead. a A model illustrating the mode of action of aggregate-targeting AUTOTAC. b Chemical structures of PBA-1105, PBA-1106, Anle138b-F105 and PBA-1105b. c In vitro p62 oligomerization assay in HEK293T cells incubated with the indicated compounds in (b). d WB in HEK293T cells treated with MG132 (1 μM, 24 h), HCQ (10 μM, 24 h), PBA-1105, YTK-1105, and PBA (1 μM, 24 h). e Identical to (d), but with Anle-F105. f ICC of HeLa cells treated with HCQ (10 μM, 24 h), MG132 (2 μM, 18 h) or both in the presence of PBA-1106, YOK-1106 or PBA (1 μM, 24 h). Scale bar, 10 μm. g Quantification of (f) (n = 3, 50 cells). h ICC of HeLa cells treated with Anle138b-F105 (1 μM, 24 h). Scale bar, 10 μm. i Quantification of (h) (n = 3, 50 cells). When indicated, n = 3 biologically independent experiments each counting 50 cells. Data are presented as mean values ± SD where relevant. P-values (from a two-sided unpaired t test): ***P < 7.66E−05. Source data are provided with this paper.
Cells were cultured on coverslips coated with poly-L-lysine (Sigma) to observe cellular localization of proteins. Using 4% paraformaldehyde in PBS (pH 7.4), the cells were fixed for 15 min at room temperature and washed three times for 5 min with PBS. After fixing, the cells were permeabilized with 0.5% Triton X-100 in PBS solution for 15 min and washed three times with PBS for 5 min. The cells were blocked containing 2% BSA in PBS solution for 1 h at room temperature. Subsequently, the cells were incubated with primary antibody diluted in 2% BSA/PBS solution overnight at 4 °C, followed by washing the cells three times for 10 min with PBS and incubated with Alexa Fluor-conjugated secondary antibody diluted in 2% BSA/PBS for 30 min at room temperature. Using a DAPI-containing mounting medium (Vector Laboratories), the coverslips were mounted on glass slides. Confocal images were taken by laser scanning confocal microscope 510 Meta (Zeiss) and analyzed by Zeiss LSM Image Browser (ver. 4.2.0.121). […] Quantification results are shown as mean ± S.D. or S.E.M. of three independent experiments

The test system of the next series is Ub-conjugated aggregates. Nature of the series: WB autophagic flux of Ub-conjugated aggregates in HEK293T cells under proteasomal inhibition. The series is classed as cell-based. The procedure:
as §1
Adherent cells were washed with phosphate-buffered saline (PBS) and cell pellets were lysed in SDS-based sample buffer (277.8 mM Tris-HCI, pH 6.8, 4.4% LDS, 44.4% (v/v) glycerol) containing beta-mercaptoethanol. […] Densitometry of developed bands was measured and analyzed with ImageJ (NIH, Bethesda).

For series [1], the system named is ERβ signaling (EGFR, p-ERK/ERK, p-Akt/Akt). Nature of the series: WB of ERβ downstream signaling in E2-stimulated LNCaP cells. The series is classed as cell-based. The note with it: levels of EGFR. An excerpt: To assess the therapeutic efficacy of autophagy-targeting degraders, we compared the downstream signaling of AR and ERβ in cells treated with either AUTOTACs or their cognate TBLs. Dihydrotestosterone (DHT) and estradiol (E2) are natural agonists that respectively bind AR and ERβ and induce their dimerization and nuclear translocation, resulting in transcriptional activation of downstream proteins[27],[28]. […] Next, we examined the potency of AUTOTACs in cancer cell growth and progression.
Adherent cells were washed with phosphate-buffered saline (PBS) and cell pellets were lysed in SDS-based sample buffer (277.8 mM Tris-HCI, pH 6.8, 4.4% LDS, 44.4% (v/v) glycerol) containing beta-mercaptoethanol. Alternatively, cell pellets or protein supernatants were lysed in 5X Laemmli sample buffer. Whole-cell lysates were separated using SDS-PAGE, and transferred onto polyvinyllidene difluoride membranes at 100 V for 2 h at 4 °C.

Another series deals with ACHN cells. Nature of the series: Wound healing assay in ACHN cells. The series is classed as cell-based. The note with it: wound healing, compared with p62-binding moiety or TBL. The procedure: To analyze cell migration in two dimensions, U-87 MG or ACHN cells were plated to a monolayer. Cells were scratched with a sterile 10 μl pipette tip and the debris was removed using medium. Cells were treated with compounds and incubated for different time to monitor cell behavior. Photographs were obtained using a microscope at different time point.

Series [2] can be described thus: WST-based cell viability assay in LNCaP cells. The note with it: human, LNCaP cells.
A further series has as its system LNCaP cells. The series is described as follows: WST-based cell viability assay in LNCaP cells. The following applies: LNcaP, duplicates; for WST assay raw reading: listed as Vinclo.-2204.
Setting [3] is: WST assay viability relative to con = 100, LNcaP, duplicates.
Setting [4] is: WST assay viability, AVG %, LNcaP.

“And” between values parts separate entries of the source, which are not always exact repeats. Equal values may be shown once.

Regarding `O=C(O)CCCc1ccccc1` [4-PBA, 4-phenylbutyric acid], the “FK2 (Ub) / p62 colocalization, AVG of cells per 50 cells” value in the series on Ub^+ and p62^+ puncta (no co-treatment (con)) is reported as 6.333; in the series with Ub^+ and p62^+ puncta (with HCQ), 19; in the series with Ub^+ and p62^+ puncta (with MG132) it was 24; in the series with Ub^+ and p62^+ puncta (with MG132+HCQ) it was 35.3333. In addition, the “FK2 (Ub) / p62 colocalization, percentage AVG” value was found to be 12.6667 percentage in the series with Ub^+ and p62^+ puncta (no co-treatment (con)); 38 percentage in the series on Ub^+ and p62^+ puncta (with HCQ); 48 percentage with Ub^+ and p62^+ puncta (with MG132); 70.6667 percentage in the series with Ub^+ and p62^+ puncta (with MG132+HCQ). Also, the “FK2 (Ub) / p62 colocalization, cells counted per 50 cells (individual replicates)” value is 7 and 9 and 3 in the series on Ub^+ and p62^+ puncta (no co-treatment (con), count out of 50 cells); 25 and 15 and 17 in the series on Ub^+ and p62^+ puncta (with HCQ, count out of 50 cells); 32 and 39 and 35 in the series on Ub^+ and p62^+ puncta (with MG132+HCQ, count out of 50 cells); 13 and 33 and 26 with Ub^+ and p62^+ puncta (with MG132, count out of 50 cells).

For `O=C(CCCc1ccccc1)NCCOCCOCCOCCNCc1ccc(OCc2ccccc2)c(OCc2ccccc2)c1` [PBA-1105], the “autophagic flux index of Ub-conjugated aggregates” value in the series with Ub-conjugated aggregates (1 μM 24 h, MG132 1 μM, HCQ 10 μM, control index 1) is 2.2. Moreover, the “duration of sustained autophagic flux of Ub-conjugated aggregates” value with Ub-conjugated aggregates (1 μM, MG132) is “at least 48 h”.

In the case of `O[C@H](CNCCOCCOCCOc1ccc(-c2c(-c3ccccc3)nn3c(C(F)(F)F)cc(C(F)(F)F)nc23)cc1)COc1ccc(OCc2ccccc2)c(OCCCc2ccccc2)c1` [PHTPP-1304], the “inhibition of ERβ signaling relative to its TBL” value in series [1] was determined as 10 folds. Moreover, in the series on ACHN cells, the “inhibition of cell migration” value is “more efficiently inhibited cell migration”.

`C=CC(C)(O)C(=O)N(C(=O)NCCOCCOCCNCC(O)COc1ccc(OCCc2ccccc2)c(OCCc2ccccc2)c1)c1cc(Cl)cc(Cl)c1` (centres unmarked) [VinclozolinM2-2204] yielded an IC50 in series [2] of 4.7 µM. The viability at 0.01 µM in series [2] (setting [3]) was found to be 93.5%; in series [2] (setting [4]) it was 92.9%. Also, the viability at 0.1 µM in series [2] (setting [3]) came out at 92.5%; in series [2] (setting [4]), 91.6%. In addition, the values for the viability at 1 µM in series [2] (setting [3]) and in series [2] (setting [4]) were 89.8% and 89.9%, respectively. Further, the values for the viability at 10 µM in series [2] (setting [3]) and in series [2] (setting [4]) were 24.6% and 30.9%, respectively. In addition, the viability at 50 µM in series [2] (setting [3]) came to 1.83%; in series [2] (setting [4]) it was 1.93%. The viability at 100 µM in series [2] (setting [3]) was 3.03%; in series [2] (setting [4]) it was 3.08%. Moreover, the “WST assay raw reading” value with LNCaP cells (0.01uM) was 1.976 and 1.95; with LNCaP cells (0.1uM) it was 1.955 and 1.92; in the series with LNCaP cells (1uM), 1.902 and 1.905; in the series on LNCaP cells (10uM) it was 0.595 and 0.848; with LNCaP cells (50uM), 0.14 and 0.144; in the series on LNCaP cells (100uM), 0.164 and 0.166. For the same compound, the “WST assay viability relative to con = 100” value in the series on LNCaP cells (0.01uM, listed as Vinclo.-2204, 0.01 µM) came to 92.2257; in the series with LNCaP cells (0.1uM, listed as Vinclo.-2204, 0.1 µM), 90.7275; in the series with LNCaP cells (1uM, listed as Vinclo.-2204, 1 µM) it was 89.9784; with LNCaP cells (10uM, listed as Vinclo.-2204, 10 µM), 37.1899; in the series with LNCaP cells (50uM, listed as Vinclo.-2204, 50 µM), 2.031; with LNCaP cells (100uM, listed as Vinclo.-2204, 100 µM), 3.13.
